In ChEMBL document CHEMBL5375971, “Structure-Interaction Relationship of Polymyxins with Lung Surfactant” (2023):
Calls of active or inactive are those of the source. The calls are words filed in the database; no cut-off is given here. Where a SMILES comes first, the peptide text is derived from it. Bridges are numbered along the chain shown (N, C = ends). [ ]: non-standard residue; d: D form. The star is where a group is joined. X1 = CC[C@H](C)CCCCC(=O)*; dDab = NCC[C@@H](N)C(=O)O; Dab = NCC[C@H](N)C(=O)O

How the values were obtained:
Settings in all cases: dose 0.25-4 mg/L
Klebsiella pneumoniae [1] = experiment: Antibacterial activity against Klebsiella pneumoniae FADDI-KP065 assessed as fold increase in MIC at 0.25 to 4 mg/L in presence of lung surfactant by broth microdilution assay; format: functional
Acinetobacter baumannii [2] = experiment: Antibacterial activity against Acinetobacter baumannii FADDI-AB030 assessed as fold increase in MIC at 0.25 to 4 mg/L in presence of lung surfactant by broth microdilution assay; format: functional
Pseudomonas aeruginosa [3] = experiment: Antibacterial activity against Pseudomonas aeruginosa ATCC 27853 assessed as fold increase in MIC at 0.25 to 4 mg/L in presence of lung surfactant by broth microdilution assay; format: functional
Acinetobacter baumannii [4] = experiment: Antibacterial activity against Acinetobacter baumannii FADDI-AB030 assessed as decrease in bacterial growth at 0.25 to 4 mg/L in presence of lung surfactant by broth microdilution assay; format: functional, organism-based
Pseudomonas aeruginosa [5] = experiment: Antibacterial activity against Pseudomonas aeruginosa ATCC 27853 assessed as decrease in bacterial growth at 0.25 to 4 mg/L in presence of lung surfactant by broth microdilution assay; format: functional, organism-based
Klebsiella pneumoniae [6] = experiment: Antibacterial activity against Klebsiella pneumoniae FADDI-KP065 assessed as decrease in bacterial growth at 0.25 to 4 mg/L in presence of lung surfactant by broth microdilution assay; format: functional, organism-based

CCCCCCCC[C@@H]1NC(=O)[C@@H](Cc2ccccc2)NC(=O)[C@@H](CCN)NC(=O)[C@@H](NC(=O)[C@H](CCN)NC(=O)[C@@H](NC(=O)[C@H](CCN)NC(=O)CCCCCCC)[C@@H](C)O)CCNC(=O)[C@H]([C@@H](C)O)NC(=O)[C@H](CCN)NC(=O)[C@H](CCN)NC1=O
fold change (FC) (Klebsiella pneumoniae [1]): 2 | fold change (FC) (Acinetobacter baumannii [2]): 2 | fold change (FC) (Pseudomonas aeruginosa [3]): 8

CCCCCC(=O)N[C@@H](CCN)C(=O)N[C@@H](C(=O)N[C@@H](CCN)C(=O)N[C@H]1CCNC(=O)[C@@H]([C@H](C)O)NC(=O)[C@H](CCN)NC(=O)[C@H](CCN)NC(=O)[C@H]([C@H](C)O)NC(=O)[C@@H](CC(C)C)NC(=O)[C@H](CCN)NC1=O)[C@H](C)O
Activity (Acinetobacter baumannii [4]): inactive | Activity (Pseudomonas aeruginosa [5]): inactive | Activity (Klebsiella pneumoniae [6]): inactive

CCCCCCCCCC(=O)N[C@@H](CCN)C(=O)N[C@H](C(=O)N[C@@H](CCN)C(=O)N[C@H]1CCNC(=O)[C@H]([C@@H](C)O)NC(=O)[C@H](CCN)NC(=O)[C@H](CCN)NC(=O)[C@H]([C@H](C)O)NC(=O)[C@@H](CC(C)C)NC(=O)[C@H](CCN)NC1=O)[C@@H](C)O
Activity (Acinetobacter baumannii [4]): Active | Activity (Pseudomonas aeruginosa [5]): Active | Activity (Klebsiella pneumoniae [6]): Active

CC[C@H](C)CCCCC(=O)N[C@@H](CCN)C(=O)N[C@H](C(=O)N[C@@H](CCN)C(=O)N[C@H]1CCNC(=O)[C@H]([C@@H](C)O)NC(=O)[C@H](CCN)NC(=O)[C@H](CCN)NC(=O)[C@H](CC(C)C)NC(=O)[C@@H](Cc2ccccc2)NC(=O)[C@H](CCN)NC1=O)[C@@H](C)O (X1-[Dab]T[Dab][Dab][Dab][dF]L[Dab][Dab]T; lactam 4-C)
Activity (Acinetobacter baumannii [4]): Active | Activity (Pseudomonas aeruginosa [5]): Active | Activity (Klebsiella pneumoniae [6]): Active

CC[C@H](C)CCCCC(=O)N[C@@H](CCN)C(=O)N[C@H](C(=O)N[C@@H](CCN)C(=O)N[C@H]1CCNC(=O)[C@H]([C@@H](C)O)NC(=O)[C@H](CCN)NC(=O)[C@H](CCN)NC(=O)[C@H]([C@@H](C)O)NC(=O)[C@@H](CC(C)C)NC(=O)[C@H](CCN)NC1=O)[C@@H](C)O (X1-[Dab]T[Dab][Dab][Dab][dL]T[Dab][Dab]T; lactam 4-C)
fold change (FC) (Klebsiella pneumoniae [1]): 4 | fold change (FC) (Acinetobacter baumannii [2]): 4 | Activity (Acinetobacter baumannii [4]): Active | Activity (Pseudomonas aeruginosa [5]): Active | fold change (FC) (Pseudomonas aeruginosa [3]): 2 | Activity (Klebsiella pneumoniae [6]): Active

CC[C@H](C)CCCCC(=O)N[C@@H](CCN)C(=O)N[C@H](C(=O)N[C@H](CCN)C(=O)N[C@H]1CCNC(=O)[C@H]([C@@H](C)O)NC(=O)[C@H](CCN)NC(=O)[C@H](CCN)NC(=O)[C@H]([C@@H](C)O)NC(=O)[C@@H](CC(C)C)NC(=O)[C@H](CCN)NC1=O)[C@@H](C)O (X1-[Dab]T[dDab][Dab][Dab][dL]T[Dab][Dab]T; lactam 4-C)
fold change (FC) (Klebsiella pneumoniae [1]): 8 | fold change (FC) (Acinetobacter baumannii [2]): 4 | Activity (Acinetobacter baumannii [4]): Active | Activity (Pseudomonas aeruginosa [5]): Active | fold change (FC) (Pseudomonas aeruginosa [3]): 2 | Activity (Klebsiella pneumoniae [6]): Active

COLISTIN
fold change (FC) (Klebsiella pneumoniae [1]): 2 | fold change (FC) (Acinetobacter baumannii [2]): 4 | Activity (Acinetobacter baumannii [4]): Active | Activity (Pseudomonas aeruginosa [5]): Active | fold change (FC) (Pseudomonas aeruginosa [3]): 4 | Activity (Klebsiella pneumoniae [6]): Active
